Assay results taken from US20140241988A1, “METHODS AND COMPOSITIONS FOR TREATING ATRIAL FIBRILLATION” (The Regents of The University of Michigan, priority 2013, published 2014).
“Also recorded” adds a separate entry of the source.

Key:
[1] = tested on: SCN5A; assay: qPCR mRNA expression; format: cell-based, rat
Protocol: (§1) Cell Treatment: Isolated adult rat cardiac myocytes were treated with FCM or TGF-β1 (R and D systems, Minneapolis, Minn.) for 3 days in serum free medium. For PI3K pathway inhibition cells were pretreated (30 min) with 10 μM […] (Cayman Chemicals, Ann Arbor) before the treatment with TGF-β1. mRNA analysis by quantitative PCR (qPCR): Cardiac myocytes were washed with PBS and lysed with lysis buffer. RNA was isolated from the myocardial tissue using RNAeasy kit from Qiagen (Qiagen, Valencia, Calif.) according to the manufacturer's instructions. Isolated RNA from these samples was treated with DNase for 15 min at room temperature (Qiagen, Valencia, Calif.). 100 ng of DNA-free total poly-A tail RNA (mRNA) was first subjected to synthesis of cDNA using Oligo dT primers applying SuperScript III First-Strand Synthesis System from Invitrogen (Invitrogen, Carlsbad, Calif.) according to the manufacturer's instructions. cDNA from 20 ng of total RNA was then subjected to real-time RT-PCR using predesigned taqman probe primers specific for rat Scn5a (Rn00565502), Kcnip2 (Kchip2; Rn01411451) and kcnd2 (Rn01456260) (Applied Biosystems, California). No-template controls and no-RT controls were run during each experiment to detect any RNA and/or DNA contamination. Results are expressed as fold expression of gene of interest normalized to GAPDH expression in the sample. Western blotting: Control and treated cardiac myocytes were washed in cold PBS, lysed directly in the modified loading buffer (25 mmol/l Tris.HCl; 150 mmol/l NaCl; 1 mmol/l EDTA; 4 mmol/l NaF; 2 mmol/l Sodium ortho-vanadate; 1% Triton X-100, protease inhibitor, 5% glycerol, 1% SDS, 0.05% bromophenol blue, 5% β mercaptoethanol) and sonicated. The lysate (20 μl) were then subjected SDS-PAGE as described earlier. The blots were incubated with rabbit pFOXO1 antibody, 1:500 (Cell Signaling) or rabbit GAPDH antibody, 1:5000 (Sigma-Aldrich, St. Louis, Mo.). Patch-clamp experiments: Whole-cell ionic currents were recorded from adult rat ventricular myocytes. All recordings were conducted at room temperature. Sodium current recordings were conducted in a low-sodium extracellular solution containing (in mM): NaCl, 10; MgCl2, 1; CaCl2, 1.8; CdCl2, 0.1; HEPES, 20; CsCl, 127.5; glucose, 11. The pipette solution contained (in mM): NaCl, 5; CsF, 135; EGTA, 10; MgATP, 5; HEPES, 5. To characterize the voltage dependence of the peak INa, single cells were held at −120 mV, and 200 msec voltage steps were applied from −90 to +30 mV in 5 mV increments. The interval between voltage steps was 3 sec. Voltage-dependence of inactivation was assessed by holding cells at various potentials from −160 to −40 mV followed by a 30 msec test pulse to −40 mV to elicit INa. […]

[2] = tested on: FOXO1; assay: Western blot of FOXO1 phosphorylation; format: cell-based, rat
Protocol: as §1, with “The blots were incubated with rabbit pFOXO1 antibody, 1:500 (Cell Signaling) or rabbit GAPDH antibody, 1:5000 (Sigma-Aldrich, St. Louis, Mo.).” left out, “All recordings were conducted at room temperature. Sodium current recordings were conducted in a low-sodium extracellular solution containing (in mM): NaCl, 10; MgCl2, 1; CaCl2, 1.8; CdCl2, 0.1; HEPES, 20; CsCl, 127.5; glucose, 11. The pipette solution contained (in mM): NaCl, 5; CsF, 135; EGTA, 10; MgATP, 5; HEPES, 5. To characterize the voltage dependence of the peak INa, single cells were held at −120 mV, and 200 msec voltage steps were applied from −90 to +30 mV in 5 mV increments. The interval between voltage steps was 3 sec.” left out

[3] = tested on: adult sheep atrial fibroblasts; assay: Wound healing (migration) assay; format: cell-based; conditions: Gal-3 10 μg/ml, days 0-2
Protocol: (§2) Wound healing experiments were performed to investigate if exogenous Gal-3 can increase myofibroblast migration in vitro (FIG. 3). Adult sheep atrial fibroblasts were cultured in 96-well plates until confluent. Before serum starvation, cells were stained with cell tracker dye and DAPI. A wound was created by scraping a semi-confluent monolayer of cells with a 1 ml pipette tip. Thereafter, cells underwent serum starvation in DMEM with 5% FBS for 6 hrs. Comparisons were made between untreated and Gal-3 treated (1 μg/ml or 10 μg ml) cells. The wound was imaged at 4 different locations at 3 different time points (days 0, 1 and 2). The size of the wound was quantified using the NIS element program by Nikon. […] Next, to investigate the effects of Gal-3 on myofibroblast proliferation, adult sheep atrial fibroblasts were treated with recombinant human Gal-3 (EMD chemicals, USA) for 24 hours in the presence of SFM. FM was included as a positive control. Cell proliferation was measured using cell proliferation reagent WST (Roche Diagnostics, USA). […] Such concentrations are in the same range used previously (Sharma et al., Circulation. 2004; 110:3121-3128) to investigate Gal-3 induced fibroblast proliferation in the cardiomyopathic heart.

[4] = tested on: adult sheep atrial myofibroblasts; assay: Cell proliferation assay (WST reagent); format: cell-based; conditions: Gal-3 1-30 μg/ml, 24 hours, SFM
Protocol: as §2

[5] = tested on: adult rat ventricular myocytes; assay: Whole-cell patch clamp, peak inward sodium current (INa); format: cell-based
Protocol: as §1

[6] = tested on: adult rat ventricular myocytes; assay: Whole-cell patch clamp, transient outward potassium current (Ito); format: cell-based; conditions: 72 hr
Text: The extracellular solution for transient outward potassium current (Ito) contained (in mM): 136 NaCl, 4 KCl, 1.8 CaCl2, 2 MgCl2, 10 HEPES, 0.03 tetrodotoxin, 0.01 nifedipine, and 14 glucose, pH 7.35. The pipette solution contained (in mM):135 KCl, 1 MgCl2, 10 EGTA, 10 HEPES, 5 glucose, pH 7.2. Voltage-gated outward K+ currents were evoked during 5-s depolarizing voltage steps to potentials between −40 and +60 mV from a holding potential of −70 mV; voltage steps were presented in 10 mV increments at 15 s intervals
(§3) In all experiments, cells were exposed to one of the following for 72 hrs prior to the experiment: control medium, FCM or TGF-β1.

[7] = tested on: adult rat ventricular myocytes; assay: Current clamp action potential recording; format: cell-based
Protocol: Action potentials were recorded from individual myocytes using the current clamp mode of the MultiClamp 700B amplifier after gigaseal formation and patch break. Stimulus pulses (1-2 ms duration) were generated using a World Precision Instruments DS8000 stimulator (Sarasota, Fla.). The bath solution contained (in mM): NaCl: 148, KCl: 5.4, MgCl2: 1, CaCl2 1.8, NaH2PO4: 0.4, HEPES: 15, Glucose: 5.5, pH 7.4 with NaOH. The pipette solution contained (in mM), KCl: 20, K-aspartate: 90, KH2PO4: 10, EDTA: 5.0, K2ATP: 1.9, HEPES: 5.0 and Mg2+ 7.9; pH 7.2 (KOH)
as §3

[8] = tested on: KCND2; assay: qPCR mRNA expression; format: cell-based, rat; conditions: 1 ng/ml, 72 hr
Protocol: as §1

[9] = tested on: KCNIP2; assay: qPCR mRNA expression; format: cell-based, rat; conditions: 1 ng/ml, 72 hr
Protocol: as §1

With `O=c1cc(N2CCOCC2)oc2c(-c3ccccc3)cccc12` [LY 29004, reference compound] the “TGF-β1 induced increase in SCN5A transcription” value ([1]; pretreated with PI3K inhibitor (10 μM, 30 min)) was “failed to show increased SCN5A transcription” and the “phosphorylation of FOXO1 in TGF-β1 treated cells” value ([2]; pretreated with PI3K inhibitor) was “inhibited”.
“Gal-3: recombinant human Gal-3 (EMD chemicals, USA)” was tested, and the “rate of migration / wound healing” value [3] was “significantly increased the rate of migration and promoted wound healing; also recorded: increases the rate of wound healing” and the “proliferation (number) of adult sheep atrial myofibroblasts” value [4] was “increased the number of adult sheep atrial myofibroblasts in a concentration-dependent manner; also recorded: increases proliferation”.
In the case of “TGF-β1: exogenous TGF-β1 cytokine (R and D systems, Minneapolis, Minn.)”, the “more inward current compared to control medium” value ([5]; 1 ng/ml, at −40V (so in the source)) is reported as “about 40%”, the “EC50 for increase of peak inward INa density” value ([5]; 72 hours, 0.001-1.0 ng/ml) is reported as 0.007 ng/mL and the “voltage dependence of activation (m∞) and inactivation (h∞)” value ([5]; 72 hr treatment) is reported as “neither the m∞ nor the h∞ curve was modified”. The “maximum INa increase” value ([5]; at 1 ng/ml (also seen at 10 ng/ml), 72 hours) was “about 40%”, the “peak Ito” value ([6]; 1 ng/ml) was “significantly reduced the peak Ito but to a much modest level” and the Ito current density ([6]; 10 ng/ml, 60 mV) was 12.6±0.98. For the same compound, the “Ito current density, % of control levels” value ([6]; 10 ng/ml, 60 mV) was 57%, the “reduction of Ito current density” value ([6]; 10 ng/ml, +20 mV) was 42% and the APD30 ([7]; 10 ng/ml, BCL 1000 ms) was 29.1 ± 5.6 ms. For the same compound, the “APD30 times larger than control” value ([7]; 10 ng/ml, BCL 1000 ms) was greater than 3.5 times, the “APD / early afterdepolarizations” value ([7]; 50 ng/ml) was “APD was so prolonged that some cells early after depolarizations (EADs)” and the “decrease of KCND2 expression with respect to control” value [8] was 50.6%. The “reduction of KCNIP2 mRNA levels” value [9] was 77%, the “SCN5A transcript levels, fold increase” value ([1]; 1 ng/ml, 72 hr) was 1.73±0.26 fold and the “increase in phosphorylated FOXO1 vs control” value ([2]; 1 ng/ml) was 67%. For the same compound, the “time of peak FOXO1 phosphorylation” value ([2]; 1 ng/ml) was 15 min.
